Experimental data reported in patent US8129396B2, “2-[1H-benzimidazol-2(3H)-ylidene]-2-(pyrimidin-2-yl)acetamides and 2-[benzothiazol-2(3H)-ylidene]-2-(pyrimidin-2-yl)acetamides as kinase inhibitors” (Telik, Inc., priority 2008, dated 2012).

Legend:
[1] = tested on: HL60 (human promyelocytic leukemia) cells; assay: HL60 cytotoxicity assay (CellTiter-Glo); type: cell-based; settings: HL-60, 72 h, cytotoxicity, three days culture, read-out: HL60 IC50
p-H3 in HCT116 cells = assay: Histone phosphorylation (p-H3) assay; type: cell-based; settings: Homo sapiens, HCT-116; HCT116 cells, 4 hr incubation; read-out: p-H3 IC50
Method in brief: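 HCT116 cells (2.5×10^4/well, attached overnight) treated 4 h with 8-point 3-fold compound dilutions at 0.5% DMSO. Lysates dot-blotted onto nitrocellulose and probed for p-H3 with β-actin on the same membrane, fluorescent secondary antibodies, Odyssey scan; duplicate wells.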

VEGFR2 kinase = target: T1, VEGFR2 kinase (Homo sapiens, UniProt P35968); assay: VEGFR2 kinase assay; type: biochemical; settings: 6 μM ATP, 1 mM MnCl2; rounded to 1 significant figure
T1 construct: purchased Cell Signaling Technology
T1 sequence (P35968 20-1356): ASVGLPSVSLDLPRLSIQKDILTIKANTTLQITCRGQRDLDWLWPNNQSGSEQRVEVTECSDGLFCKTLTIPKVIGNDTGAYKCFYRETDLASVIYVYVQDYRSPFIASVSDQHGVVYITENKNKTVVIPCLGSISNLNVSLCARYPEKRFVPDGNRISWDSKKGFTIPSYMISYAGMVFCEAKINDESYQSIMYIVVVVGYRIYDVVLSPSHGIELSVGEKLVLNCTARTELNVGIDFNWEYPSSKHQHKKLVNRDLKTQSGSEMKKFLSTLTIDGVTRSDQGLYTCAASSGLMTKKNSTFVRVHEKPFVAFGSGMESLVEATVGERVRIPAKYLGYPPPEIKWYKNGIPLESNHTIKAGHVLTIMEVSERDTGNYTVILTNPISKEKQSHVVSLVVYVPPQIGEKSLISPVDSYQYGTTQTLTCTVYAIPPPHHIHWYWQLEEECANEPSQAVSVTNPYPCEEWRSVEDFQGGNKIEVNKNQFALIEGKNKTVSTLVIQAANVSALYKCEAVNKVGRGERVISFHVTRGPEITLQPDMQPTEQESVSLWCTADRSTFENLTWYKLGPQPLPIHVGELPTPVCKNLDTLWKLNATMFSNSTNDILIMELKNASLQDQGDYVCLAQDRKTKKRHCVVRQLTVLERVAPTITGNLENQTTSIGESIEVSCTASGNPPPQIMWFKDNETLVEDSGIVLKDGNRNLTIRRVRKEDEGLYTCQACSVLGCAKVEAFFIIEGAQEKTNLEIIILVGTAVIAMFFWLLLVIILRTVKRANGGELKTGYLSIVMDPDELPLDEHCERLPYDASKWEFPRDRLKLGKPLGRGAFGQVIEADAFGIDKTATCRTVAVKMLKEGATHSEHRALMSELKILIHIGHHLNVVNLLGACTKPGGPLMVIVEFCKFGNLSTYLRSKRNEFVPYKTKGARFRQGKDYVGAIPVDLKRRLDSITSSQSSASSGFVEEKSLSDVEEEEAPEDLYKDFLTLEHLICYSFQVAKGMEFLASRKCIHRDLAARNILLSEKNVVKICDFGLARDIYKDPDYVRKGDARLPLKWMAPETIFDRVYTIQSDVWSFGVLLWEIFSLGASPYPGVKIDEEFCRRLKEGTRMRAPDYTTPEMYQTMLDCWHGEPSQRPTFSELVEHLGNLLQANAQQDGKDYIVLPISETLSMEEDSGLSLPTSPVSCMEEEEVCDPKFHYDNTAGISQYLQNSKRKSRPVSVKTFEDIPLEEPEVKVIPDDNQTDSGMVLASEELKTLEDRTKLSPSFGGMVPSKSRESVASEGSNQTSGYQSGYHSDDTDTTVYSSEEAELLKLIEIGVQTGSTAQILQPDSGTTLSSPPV
Method in brief: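 VEGFR2 phosphorylates CSKtide with 6 μM ATP and 1 mM MnCl2 for 1 hr, otherwise following the Aurora A kinase protocol. Detection by IMAP fluorescence polarization, binding reagent diluted 1:1200 in 1:1 binding buffer A/B. Run in duplicate with solvent control.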

[2] = tested on: HCT116 (human colon carcinoma) xenograft; assay: HCT116 xenograft assay, oral administration; type: in vivo, athymic nu/nu mice; settings: for inhibition of tumor growth compared to vehicle: 150 mg/Kg by gavage once/day on days 1-5 and 8-12, measured 9 days after last treatment
Method: Male athymic nu/nu mice, 6-8 weeks old (about 20 g), were implanted subcutaneously in the right fore flank with about 1×10^7 cells of the HCT116 (human colon carcinoma) line that had been grown in antibiotic-free medium for at least two passages. About 14-21 days after tumor transplantation, when the tumor weight was about 50-250 mg, the mice were assigned to treatment groups. […] Groups of mice were treated with compounds 39A, 40A, 60A, 75A, 95A, and 117A at 150 mg/Kg by gavage once/day on days 1-5 and 8-12 from the start of treatment, with vehicle control. Tumor growth inhibition was measured 9 days after the last day of treatment.

Aurora A kinase = target: T2, Aurora A kinase (Homo sapiens, UniProt O14965); assay: Aurora A kinase assay (IMAP fluorescence polarization); type: biochemical; settings: 10 μM ATP; rounded to 1 significant figure; read-out: Aur-A IC50
T2 construct: purchased Upstate Biotech
T2 sequence (O14965 1-403): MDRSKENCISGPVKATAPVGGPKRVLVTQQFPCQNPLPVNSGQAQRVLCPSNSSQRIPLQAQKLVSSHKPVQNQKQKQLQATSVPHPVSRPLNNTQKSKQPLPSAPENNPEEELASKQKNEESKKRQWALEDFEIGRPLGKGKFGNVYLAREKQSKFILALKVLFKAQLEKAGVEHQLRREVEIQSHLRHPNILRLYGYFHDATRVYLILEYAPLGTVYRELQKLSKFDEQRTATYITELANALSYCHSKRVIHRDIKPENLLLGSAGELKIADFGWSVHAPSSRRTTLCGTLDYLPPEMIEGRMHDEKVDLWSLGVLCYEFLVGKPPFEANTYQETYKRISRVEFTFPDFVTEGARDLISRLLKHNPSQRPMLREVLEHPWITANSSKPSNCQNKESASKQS
Method in brief: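 Compounds (eight 3-fold dilutions, 2.5% DMSO final) were preincubated 5 min at room temperature with Aurora A kinase in buffer with 1 mM DTT. Reaction with 100 nM fluorescein-PKAtide and 10 μM ATP ran 45 min at room temperature, then was stopped with IMAP binding reagent; fluorescence polarization was read after 30 min.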

[3] = tested on: HCT116 (human colon carcinoma) cells; assay: HCT116 cytotoxicity assay (CellTiter-Glo); type: cell-based; settings: HCT-116, 72 h, cytotoxicity, three days culture, read-out: HCT116 IC50
[4] = tested on: HUVEC-2 (human umbilical vein endothelial cells); assay: HUVEC VEGF-dependent proliferation assay (BrdU); type: cell-based; settings: VEGF (25 ng/mL)-dependent proliferation, read-out: HUVEC IC50
Method in brief: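 HUVEC-2 cells on gelatin got serially diluted compound (0.5% DMSO final), and VEGF (25 ng/mL) was added 2 hr later. BrdU (10 μM) went in after one day, with labelling for another day. VEGF-dependent proliferation was read by BrdU detection, in triplicate.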

Aurora B kinase = target: T3, Aurora B kinase (Homo sapiens, UniProt Q96GD4); assay: Aurora B kinase assay (IMAP fluorescence polarization); type: biochemical; settings: 10 μM ATP; rounded to 1 significant figure; read-out: Aur-B IC50
T3 construct: purchased BPS Bioscience
T3 sequence (Q96GD4 whole entry): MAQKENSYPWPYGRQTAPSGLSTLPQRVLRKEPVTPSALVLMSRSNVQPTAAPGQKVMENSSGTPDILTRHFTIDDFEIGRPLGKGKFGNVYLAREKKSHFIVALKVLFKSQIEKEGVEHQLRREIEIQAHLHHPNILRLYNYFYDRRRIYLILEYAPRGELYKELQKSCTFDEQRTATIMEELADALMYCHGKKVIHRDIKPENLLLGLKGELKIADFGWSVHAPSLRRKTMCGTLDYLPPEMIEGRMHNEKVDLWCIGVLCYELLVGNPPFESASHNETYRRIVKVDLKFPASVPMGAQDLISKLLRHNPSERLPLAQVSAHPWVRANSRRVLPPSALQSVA
Method in brief: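 Reaction started with 100 nM fluorescein-labelled PKAtide and 10 μM ATP, run 45 min at room temperature, then stopped with IMAP binding reagent (1:400). After 30 min shaking at room temperature, fluorescence polarization read; run in duplicate with solvent control.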

[5] = tested on: HL60 (human promyelocytic leukemia) xenograft; assay: HL60 xenograft assay, oral administration; type: in vivo, athymic nu/nu mice; settings: for inhibition of tumor growth compared to vehicle: 150 mg/Kg by gavage once/day on days 1-5 and 8-10, measured 1-2 days after last treatment
Method: Male athymic nu/nu mice, 6-8 weeks old (about 20 g), were implanted subcutaneously in the right fore flank with about 1×10^7 cells of the HL60 (human promyelocytic leukemia) line that had been grown in antibiotic-free medium for at least two passages. About 6 days after tumor implantation, when the tumor weight was about 50-250 mg, the mice were assigned to treatment groups. […] […] Tumor growth inhibition was measured 1-2 days after the last day of treatment.

Aurora kinase C = target: T4, Aurora kinase C (Homo sapiens, UniProt Q9UQB9); settings: reported; cited from earlier work
T4 sequence (Q9UQB9 1-309): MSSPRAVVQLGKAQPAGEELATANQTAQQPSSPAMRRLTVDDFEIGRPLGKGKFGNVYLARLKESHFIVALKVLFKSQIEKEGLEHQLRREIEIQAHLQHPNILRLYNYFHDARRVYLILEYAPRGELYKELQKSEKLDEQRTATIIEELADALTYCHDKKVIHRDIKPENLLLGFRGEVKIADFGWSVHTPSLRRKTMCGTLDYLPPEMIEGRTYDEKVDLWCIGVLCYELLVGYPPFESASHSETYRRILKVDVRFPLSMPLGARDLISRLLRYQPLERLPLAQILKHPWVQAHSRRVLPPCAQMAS

[6] = dissolved at 10 mg/mL in 0.1M sodium acetate pH5

SMILES | IC50 (p-H3 in HCT116 cells) [nM] | IC50 (VEGFR2 kinase) [nM] | IC50 (Aurora A kinase) [nM] | IC50 (Aurora B kinase) [nM] | IC50 [1] [nM] | inhibition of tumor growth compared to vehicle [2] [%] | IC50 [3] [nM] | IC50 [4] [nM] | inhibition of tumor growth compared to vehicle [5] [%] | IC50 (Aurora kinase C) [nM] | tumor inhibition relative to vehicle ([2]; dissolved at 4 mg/mL in 0.1M sodium acetate pH5) [%] | tumor inhibition relative to vehicle ([5]; dissolved at 4 mg/mL in 0.1M sodium acetate pH5, dosing at 40 mg/mL) [%] | tumor inhibition relative to vehicle [5, 6] [%]
NC(=O)C(=C1Nc2ccc(C(=O)NCCCN3CCOCC3)cc2S1)c1nccc(C(F)(F)F)n1 (single isomer, unassigned) [Compound 40A, 2-(6-{[3-(4-morpholinyl)propyl]aminocarbonyl}-benzothiazol-2(3H)-ylidene)-2-(4-trifluoromethylpyrimidin-2-yl)acetamide] | 500 | 3 | 3 | 7 | 7000 | 18 | 200 | 30 |  |  |  |  | 
NC(=O)C(=C1Nc2ccc(OCCn3ccnc3)cc2S1)c1nccc(C(F)(F)F)n1 (single isomer, unassigned) [Compound 117A, 2-{6-[2-(1H-imidazol-1-yl)ethoxy]benzothiazol-2(3H)-ylidene}-2-(4-trifluoromethylpyrimidin-2-yl)acetamide] | 300 | 20 | 10 | 8 |  | 42 | 800 | 60 |  |  |  |  | 
Cc1nc(N)sc1-c1ccnc(Nc2ccc(N3CCOCC3)cc2)n1 [CYC116] |  |  |  |  |  |  |  |  |  | < 100 |  |  | 
NC(=O)/C(=C1\Nc2ccc(CCn3ccnc3)cc2S1)c1nccc(C(F)(F)F)n1 [Compound 95A] | 50 | 20 | 20 | 4 | 2000 | 61 | 2000 | 50 | 59 |  |  |  | 
CCN(C(=O)C1CCN(C)CC1)c1ccc2c(c1)N/C(=C(/C(N)=O)c1nccc(C(F)(F)F)n1)N2 [Compound 141A] | 300 | 40 | 4 | 6 | 1000 |  | 900 | 20 |  |  |  |  | 49
CN1CCCC[C@H]1C(=O)Nc1ccc2c(c1)N/C(=C(/C(N)=O)c1nccc(C(F)(F)F)n1)N2 [Compound 142A] | 300 | 10 | 2 | 4 | 200 |  | 300 | 90 |  |  |  |  | 89

More lines, in order of falling IC50 (p-H3 in HCT116 cells), values ahead:

IC50 (p-H3 in HCT116 cells) [nM] | IC50 (VEGFR2 kinase) [nM] | IC50 (Aurora A kinase) [nM] | IC50 (Aurora B kinase) [nM] | SMILES | IC50 [1] [nM] | inhibition of tumor growth compared to vehicle [2] [%] | IC50 [3] [nM] | IC50 [4] [nM] | inhibition of tumor growth compared to vehicle [5] [%] | IC50 (Aurora kinase C) [nM] | tumor inhibition relative to vehicle ([2]; dissolved at 4 mg/mL in 0.1M sodium acetate pH5) [%] | tumor inhibition relative to vehicle ([5]; dissolved at 4 mg/mL in 0.1M sodium acetate pH5, dosing at 40 mg/mL) [%] | tumor inhibition relative to vehicle [5, 6] [%]
1000 | 20 | 7 | 9 | NC(=O)/C(=C1\Nc2ccc(CCN3CCOCC3)cc2S1)c1nccc(C(F)(F)F)n1 [Compound 101A] | 2000 |  | 1000 | 50 | 38 |  |  |  | 
900 | 7 | 10 | 5 | NC(=O)C(=C1Nc2ccc(C(=O)NCCCN3CCOCC3)cc2N1)c1nccc(C(F)(F)F)n1 (single isomer, unassigned) [Compound 39A, 2-(5-{[3-(4-morpholinyl)propyl]aminocarbonyl}-1H-benzimidazol-2(3H)-ylidene)-2-(4-trifluoromethylpyrimidin-2-yl)acetamide] | 500 | 56 | 300 | 60 | 47 |  |  |  | 
400 | 50 | 60 | 10 | CCN(CC)CC(=O)Nc1ccc2c(c1)N/C(=C(/C(N)=O)c1nccc(C(F)(F)F)n1)N2 [Compound 75A] |  | 60 | 1000 | 200 | 72 |  |  |  | 
200 | 5 | 10 | 7 | NC(=O)/C(=C1\Nc2ccc(C(=O)N3CCNCC3)cc2N1)c1nccc(C(F)(F)F)n1 [Compound 60A] |  | 37 | 200 | 80 |  |  |  |  | 
200 | 30 | 4 | 6 | CN1CCCC[C@@H]1C(=O)Nc1ccc2c(c1)N/C(=C(/C(N)=O)c1nccc(C(F)(F)F)n1)N2 [Compound 143A] | 300 |  | 300 | 80 |  |  |  |  | 65
90 | 30 | 20 | 2 | CCN(CC)CC(=O)N(CC)c1ccc2c(c1)N/C(=C(/C(N)=O)c1nccc(C(F)(F)F)n1)N2 [Compound 139A] | 40 |  | 30 |  |  |  | 46 | 65 | 
